Laboratory results as given in PubChem BioAssay (NCI).
Values joined by “and” are separate entries in the source; they are usually repeats but may differ in a detail not shown here. Equal entries are not always repeated.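 Five compound concentrations were applied to cells in 96-well plates for 48 hours; endpoints were derived by simple linear interpolation of the resulting dose-response curve. GI50 = concentration required for 50% inhibition of growth. TGI denotes the concentration required for complete inhibition of growth.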

What was measured:
Test in all cases: DTP human tumour cell line panel, 48 h
[1] = tested on: COLO 205 colon
[2] = tested on: HS 578T breast
[3] = tested on: K-562 leukemia
[4] = tested on: MDA-MB-435
[5] = tested on: OVCAR-3 ovarian
[6] = tested on: RPMI-8226 leukemia
[7] = tested on: SF-295 CNS
[8] = tested on: SK-MEL-2 melanoma
[9] = tested on: SK-OV-3 ovarian
[10] = tested on: UACC-62 melanoma

Structure (SMILES)	GI50 [1]	TGI [1]	GI50 [2]	TGI [2]	GI50 [3]	TGI [3]	GI50 [4]	TGI [4]	GI50 [5]	TGI [5]	GI50 [6]	TGI [6]	GI50 [7]	TGI [7]	GI50 [8]	TGI [8]	GI50 [9]	TGI [9]	GI50 [10]	TGI [10]
COc1ccc(/C=N\NC(=O)c2ccc3nc(-c4ccc(Cl)cc4)[nH]c3c2)cc1	1.94 µM	5.43 µM	2.3 µM	5.64 µM	2.69 µM	11.2 µM	3.11 µM	9.84 µM	2.28 µM	5.14 µM	0.997 µM	4.77 µM	2.23 µM	5.05 µM	3.59 µM	13.8 µM	2.3 µM	12.8 µM	1.94 µM	4.47 µM
COc1cnc2c(c1)C(=O)c1c-2n(CCCNCCN2CCOCC2)c(=O)c2cc([N+](=O)[O-])ccc12	0.297 µM	3.07 µM	3.85 µM	26.9 µM	0.226 µM	2.59 µM	0.42 µM	15.4 µM	0.315 µM	1.71 µM	0.171 µM	1.55 µM	0.0735 µM	0.964 µM	1.59 µM	14.4 µM	0.142 µM	1.62 µM	0.0438 µM	0.434 µM
CC(C)=CC(=O)N[C@@H]1CC2CCC3C(CC[C@@]4(C)C3CC[C@@H]4C(C)N(C)C)[C@@]2(C)C[C@@H]1O (stereo not given in full)	1.79 µM	3.71 µM	6.12 µM	25.3 µM	0.849 µM	8.49 µM	2.9 µM	10.1 µM	5.14 µM	21.9 µM	2.51 µM	18.5 µM	3.45 µM	16.6 µM	14.4 µM	38.2 µM	10.4 µM	24.6 µM	2.24 µM	5.28 µM
O=c1c2c(=NCCN3CCCC3)cc3c(=O)n(CCCN4CCOCC4)c(=O)c4ccc(c(O)n1CCCN1CCOCC1)c2c4-3	0.165 µM	0.423 µM	1.18 µM	5.24 µM	< 0.0213 µM	> 70.4 µM	0.122 µM	0.264 µM	0.0994 µM	1 µM	0.146 µM	1.09 µM	0.231 µM	0.84 µM	0.239 µM	0.874 µM	0.381 µM	2.15 µM	0.35 µM	0.966 µM
O=C1/C(=C/c2ccc(Cl)cc2)CN(C(=O)CCN2CCC(=NO)CC2)C/C1=C\c1ccc(Cl)cc1	0.345 µM	1.32 µM	1.27 µM	6.43 µM	0.23 µM	–	0.631 µM	1.76 µM	0.628 µM	1.78 µM	0.157 µM	0.552 µM	1.46 µM	2.86 µM	1.95 µM	3.92 µM	1.94 µM	4.21 µM	0.585 µM	1.72 µM
CC(=O)Nc1ccc(-c2csc(Nc3cccc(-c4csc(-c5ccccc5)n4)c3)n2)cc1	24.2 µM	> 50 µM	37.2 µM	> 50 µM	12.6 µM	48.5 µM	15.2 µM	> 50 µM	20.4 µM	> 50 µM	19.4 µM	> 50 µM	14.7 µM	> 50 µM	16.4 µM	> 50 µM	> 50 µM	> 50 µM	4.7 µM	14.9 µM
CCOC(=O)c1ccccc1SC(C[N+](=O)[O-])c1ccccc1 (stereo not given)	3.6 µM	13 µM	12.6 µM	47.1 µM	3.01 µM	16 µM	2.91 µM	11.4 µM	10.4 µM	22.4 µM	2.44 µM	5.53 µM	18.3 µM	34.6 µM	18.9 µM	36.6 µM	12.7 µM	26.5 µM	13.3 µM	27.1 µM
COc1cc(OC)c(F)c(COc2cnc(Nc3cnn(CCO)c3)nc2)c1F	0.607 µM	3.14 µM	0.35 µM	3.43 µM	0.343 µM	> 100 µM	0.2 µM	0.59 µM	0.429 µM	> 100 µM	1.03 µM	> 100 µM	0.649 µM	> 29.8 µM	0.404 µM	2.71 µM	0.845 µM	5.67 µM	0.518 µM	> 62 µM
c1ccc2cc(C[n+]3ccn(Cc4ccc5ccccc5n4)c3)ccc2c1	0.239 µM and 1.72 µM	0.738 µM and 5.07 µM	1.25 µM and 4.49 µM	12.2 µM and 20.3 µM	0.585 µM and 1.7 µM	13.8 µM and 14.8 µM	0.312 µM and 2.46 µM	1.31 µM and 10.6 µM	0.316 µM and 2.15 µM	1.98 µM and 13.2 µM	0.196 µM and 0.876 µM	–	0.71 µM and 4.46 µM	4.98 µM and 18.7 µM	0.381 µM and 2.44 µM	1.8 µM and 8.98 µM	0.671 µM and 3.64 µM	4.3 µM and 17.7 µM	0.374 µM and 1.91 µM	1.5 µM and 5.94 µM
CCCCCCCCNC(C)C(O)c1ccc(SC(C)C)cc1 (stereo not given)	1.62 µM	3 µM	1.98 µM	4.61 µM	1.88 µM	3.8 µM	1.69 µM	3.21 µM	1.98 µM	3.46 µM	2.06 µM	4.91 µM	1.68 µM	3.2 µM	2.05 µM	3.74 µM	1.63 µM	2.98 µM	1.53 µM	2.95 µM
CCCC(C)c1c(Cl)nc(Cl)nc1Cl (stereo not given)	–	15.8 µM	–	> 100 µM	–	> 100 µM	–	21 µM	–	21.3 µM	–	> 100 µM	–	37 µM	–	> 100 µM	–	43.8 µM	–	–
COc1ccc(-c2nc(-c3ccccn3)c(-c3ccccn3)n2CC(C)C)cc1OC1CCCC1	52.2 µM	> 165 µM	9.71 µM	79.4 µM	6.37 µM	> 165 µM	31.3 µM	> 165 µM	30.3 µM	114 µM	27.4 µM	80.5 µM	9.56 µM	106 µM	38.4 µM	80.2 µM	27.6 µM	116 µM	–	–
